Test results taken from patent US11077169B2, “Soy-derived bioactive peptides for use in compositions and methods for wound healing, tissue engineering, and regenerative medicine” (Temple University-Of The Commonwealth System of Higher …, priority 2015, dated 2021).

Tested on: HaCaT epithelial cells
Test: wound closure in HaCaT cells with ethanol extracts and estrogen receptor antagonist
Type: cell-based, human

`C[C@]12CC[C@@H]3c4ccc(O)cc4C[C@@H](CCCCCCCCC[S+]([O-])CCCC(F)(F)C(F)(F)F)[C@H]3[C@@H]1CC[C@@H]2O` (some centres unmarked) [Fluvestrant] was tested, and the “effect on WSsoy-induced wound closure” value was “did not affect” and the “inhibition of SPI-induced wound closure” value (10 μM antagonist) was “significantly inhibited”.
